Data on 72 compounds can be found in patent publication US10774051B2, “6-membered heterocyclic derivatives and pharmaceutical composition comprising the same” (Shionogi & Co., Ltd., priority 2015, dated 2020).

One test addresses human P2X7 receptor (Homo sapiens, UniProt Q99572, R270H/Y155H). Put plainly: Evaluation of human P2X7 receptor inhibitory activity (Yo-Pro uptake, BzATP stimulation, FLIPR TETRA). Type of test: cell-based. Conditions: 1321N1 cells stably expressing human P2X7 receptor; BzATP stimulation, Yo-Pro uptake; read-out: IC50 (antagonistic activity for the human P2X7 receptor). In a few lines:
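1321N1 cells stably expressing human P2X7 (T606C/G952A SNP variant), in HBSS buffer pH 7.4-7.5 with Yo-Pro, stimulated with BzATP; compound added 8 min after agonist. Fluorescence followed for 20 min on FLIPR; max-minus-min change gave % inhibition, IC50 by logistic fit.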
Turning to `COc1cn(Cc2ccc(F)cc2)c(Nc2cc3sc(C)nc3cc2C)nc1=O` [Compound I-0561], the IC50 (in general, the concentration needed to halve the response being measured) was 19 nM.

On to `COc1cn(Cc2cc(F)cc(Cl)c2)c(Nc2cc(Cl)cc3[nH]ccc23)nc1=O` [Compound I-0821], for which the IC50 came to 5 nM.

For `COc1cn(CCc2ccccc2)c(Nc2cccc(Cl)c2C)nc1=O` [Compound I-0008], the IC50 was found to be 37 nM.

The test is the same for the next values; noted with them: 1321N1 cells stably expressing human P2X7 receptor; BzATP stimulation, Yo-Pro uptake; read-out: IC50 (antagonistic activity for the human P2X7 receptor), class symbol.
Take `COc1cn(Cc2cc(F)cc(F)c2)c(Nc2cc3sc(C)nc3cc2C)nc1=O` [Compound I-0553]: the IC50 was in the range of 10 to 100 nM.

In the case of `COc1cn(Cc2ccc(F)c(Cl)c2)c(Nc2ccc(OC(F)(F)F)cc2C)nc1=O` [Compound I-0241], the IC50 was 10 to 100 nM.

On to `COc1cn(Cc2ccc(F)cc2)c(Nc2cc(C)c(OC(F)F)cc2C)nc1=O` [Compound I-0301], for which the IC50 was less than 10 nM.

For `COc1cn(Cc2ccccc2OC(F)F)c(Nc2cccc(Cl)c2C)nc1=O` [Compound I-0446], the IC50 is less than 10 nM.

`CCc1cc(Cl)ccc1Nc1nc(=O)c(OC)cn1Cc1ccccc1` [Compound I-0161]: the IC50 is 10 to 100 nM.

As to `COc1cn(Cc2ccc(Cl)cc2)c(Nc2cc(C)c(Cl)cc2C)nc1=O` [Compound I-0171], the half-maximal inhibitory concentration (IC50) is 10 to 100 nM.

As to `Cc1cccc(Nc2nc(=O)c(F)cn2Cc2cccc(Cl)c2)c1C` [Compound I-0224], the IC50 is less than 10 nM.

With `CCOc1cc(C)c(Nc2nc(=O)c(OC)cn2Cc2ccc(F)c(F)c2)cc1C` [Compound I-0260], the IC50 was less than 10 nM.

As for `CCc1ccc(OC)cc1Nc1nc(=O)c(OC)cn1Cc1cccc(F)c1` [Compound I-0251], the IC50 was 10 to 100 nM.

For `COc1cn(Cc2ccc(F)cc2)c(Nc2cccc(C)c2C)nc1=O` [Compound I-0141], the IC50 was 10 to 100 nM.

For `COc1cn(Cc2ccccc2)c(Nc2cc(Cl)c(Cl)cc2C)nc1=O` [Compound I-0423], the IC50 lay within 10 to 100 nM.

In the case of `COc1cn(Cc2cccc(C#N)c2)c(Nc2cccc(Cl)c2C)nc1=O` [Compound I-0047], the IC50 fell in the range of 500 to 1000 nM.

Regarding `COc1cn(Cc2ccccc2)c(Nc2cc(-c3ncco3)ccc2C)nc1=O` [Compound I-0558], the IC50 was 10 to 100 nM.

Regarding `COc1cn(Cc2ccc(F)c(F)c2)c(Nc2cc(-c3nnco3)ccc2C)nc1=O` [Compound I-0523], the IC50 was in the range of 10 to 100 nM.

As for `COc1cn(Cc2cccc(F)c2)c(Nc2cc(C)c(F)cc2C)nc1=O` [Compound I-0442], the IC50 is less than 10 nM.

In the case of `COc1cn(Cc2ccccc2)c(Nc2cccc3[nH]c(-c4ccccc4)cc23)nc1=O` [Compound I-0527], the IC50 fell in the range of 500 to 1000 nM.

In the case of `Cc1cccc(Nc2nc(=O)c(F)cn2Cc2ccc(F)cc2)c1C` [Compound I-0139], the IC50 is less than 10 nM.

Regarding `Cc1c(Cl)cccc1Nc1nc(=O)c(CCO)cn1Cc1ccccc1` [Compound I-0024], the IC50 was in the range of 10 to 100 nM.

`COc1cn(Cc2ccccc2)c(Nc2ccc(OC(F)F)cc2C)nc1=O` [Compound I-0364]: the IC50 was in the range of 100 to 500 nM.

Consider `COc1cn(Cc2cc(F)c(F)c(F)c2)c(Nc2cccc(C)c2C)nc1=O` [Compound I-0569], for which the IC50 was less than 10 nM.

For `CCc1c(Nc2nc(=O)c(OC)cn2Cc2ccc(F)c(Cl)c2)cc(OC)cc1OC` [Compound I-0363], the IC50 was less than 10 nM.

As for `COc1cn(Cc2ccccc2)c(Nc2cc(C)c(OC(F)F)cc2C)nc1=O` [Compound I-0237], the IC50 was less than 10 nM.

For `CCc1ccccc1Nc1nc(=O)c(OC)cn1Cc1cc(F)cc(Cl)c1` [Compound I-0435], the IC50 is 10 to 100 nM.

Take `COc1cn(Cc2ccccc2)c(Nc2cccc3[nH]c(C)cc23)nc1=O` [Compound I-0134]: the IC50 was in the range of 10 to 100 nM.

For the compound `COc1cn(Cc2cc(C)cc(F)c2)c(Nc2cccc(Cl)c2C)nc1=O` [Compound I-0461], the IC50 is less than 10 nM.

On to `COc1cn(Cc2ccc(F)c(Cl)c2)c(Nc2cc(C(C)C)ccc2C)nc1=O` [Compound I-0228], for which the IC50 was 10 to 100 nM.

As to `COc1cn(Cc2ccc(Cl)c(F)c2)c(Nc2cccc(Cl)c2C)nc1=O` [Compound I-0280], the IC50 is 10 to 100 nM.

For `COCc1ccccc1Nc1nc(=O)c(OC)cn1Cc1ccc(F)c(Cl)c1` [Compound I-0356], the IC50 was in the range of 100 to 500 nM.

On to `COc1cn(Cc2cc(C)cc(C)c2)c(Nc2cccc(Cl)c2C)nc1=O` [Compound I-0521], for which the IC50 was in the range of 500 to 1000 nM.

For the compound `COc1cn(Cc2ccc(F)c(Cl)c2)c(Nc2ccc(Cl)cc2C)nc1=O` [Compound I-0564], the IC50 was 10 to 100 nM.

With `COc1cn(Cc2ccccc2)c(Nc2ccccc2C)nc1=O` [Compound I-0061], the IC50 is 500 to 1000 nM.

For the compound `COc1cn(Cc2ccccc2)c(Nc2cc(-n3c(C)ccc3C)ccc2C)nc1=O` [Compound I-0525], the IC50 was 100 to 500 nM.

`COc1ccc(Nc2nc(=O)c(OC)cn2Cc2ccccc2)c(C)c1` [Compound I-0147]: the IC50 was 10 to 100 nM.

On to `CCOc1cc(C)c(Nc2nc(=O)c(OC)cn2Cc2ccccc2)cc1C` [Compound I-0206], for which the IC50 is 10 to 100 nM.

For the compound `COc1cc(C)c(Nc2nc(=O)c(F)cn2Cc2cccc(Cl)c2)cc1OC` [Compound I-0308], the IC50 was less than 10 nM.

Still in this test, the particulars now being: antagonistic activity for the human P2X7 receptor; read-out: IC50.
Regarding `Cc1nc2cc(C)c(Nc3nc(=O)c(C)nn3Cc3cc(F)cc(F)c3)cc2s1` [Compound I-1260], the IC50 is 10 to 100 nM.

As for `Cc1ccc(-c2nnco2)cc1Nc1nc(=O)c(Cl)cn1Cc1cc(F)cc(F)c1` [Compound I-0699], the IC50 is less than 10 nM.

Turning to `COc1cn(Cc2cc(F)cc(F)c2)c(Nc2cc(N3CCCC3=O)ccc2C)nc1=O` [Compound I-0648], the IC50 fell in the range of 10 to 100 nM.

With `CCOc1cc(Nc2nc(=O)c(OC)cn2Cc2cccc(Cl)c2)c(C)cc1C` [Compound I-0791], the IC50 is less than 10 nM.

On to `COc1cccc(Nc2nc(=O)c(OC)cn2Cc2ccc(F)c(Cl)c2)c1Cl` [Compound I-0683], for which the IC50 was less than 10 nM.

For the compound `COc1cn(Cc2cc(F)cc(F)c2)c(Nc2ccc(OC(F)(F)F)cc2C)nc1=O` [Compound I-0629], the IC50 fell in the range of 10 to 100 nM.

As to `O=c1nc(Nc2cccc3c(O)cccc23)n(Cc2cc(F)c(F)c(F)c2)cc1F` [Compound I-1105], the IC50 was less than 10 nM.

Turning to `Cc1cc(OC(F)F)ccc1Nc1nc(=O)c(F)cn1Cc1ccc(F)c(F)c1` [Compound I-1065], the half-maximal inhibitory concentration (IC50) lay in the range of 10 to 100 nM.

For the compound `COc1ncccc1-c1ccc(C)c(Nc2nc(=O)c(OC)cn2Cc2cc(F)cc(F)c2)c1` [Compound I-0831], the IC50 was less than 10 nM.

Take `Cc1ccc(C)c(Nc2nc(=NC#N)c(F)cn2Cc2cc(F)c(F)c(F)c2)c1` [Compound I-1293]: the IC50 was less than 10 nM.

Consider `CCOc1cc(Nc2nc(=O)c(OC)cn2Cc2ccccc2)c(C)cc1C` [Compound I-0790], for which the IC50 was less than 10 nM.

On to `CCOc1cc(Nc2nc(=O)c(OC)cn2Cc2cc(F)cc(Cl)c2)c(C)cc1C` [Compound I-0789], for which the half-inhibitory concentration (IC50) is less than 10 nM.

On to `COc1cn(Cc2ccccc2)c(Nc2cc(OC(F)F)c(C)cc2C)nc1=O` [Compound I-0875], for which the IC50 is 10 to 100 nM.

`C=C(C)c1ccc(C)c(Nc2nc(=O)c(OC)cn2Cc2cc(F)cc(Cl)c2)c1` [Compound I-0748]: the IC50 was 10 to 100 nM.

In the case of `COc1cc(C)c(Nc2cc(=O)c(OC)cn2Cc2ccc(F)c(Cl)c2)cc1C` [Compound I-0954], the IC50 fell in the range of 10 to 100 nM.

Consider `Cc1nc2cc(C)c(Nc3nc(=O)cc(C)n3Cc3cc(F)c(F)c(F)c3)cc2s1` [Compound I-1136], for which the IC50 was 10 to 100 nM.

As to `Cc1cc2[nH]ncc2cc1Nc1nc(=O)c(F)cn1Cc1cc(F)cc(F)c1` [Compound I-1092], the IC50 fell in the range of 10 to 100 nM.

As for `COc1ccc(Nc2nc(=O)c(C#N)cn2Cc2cc(F)c(F)c(F)c2)c(C)c1` [Compound I-1112], the IC50 fell in the range of 10 to 100 nM.

In the case of `COc1cn(Cc2cc(F)c(F)c(F)c2)c(Nc2cc(N3CCOCC3)ccc2C)nc1=O` [Compound I-0931], the IC50 was in the range of 10 to 100 nM.

On to `CCOc1cc(Nc2nc(=O)c(F)cn2Cc2ccc(F)c(Cl)c2)c(C)cc1F` [Compound I-1031], for which the IC50 was less than 10 nM.

For `COc1cc(Nc2nc(=O)c(F)cn2Cc2cc(F)c(F)c(F)c2)c(C)cc1F` [Compound I-1058], the IC50 is less than 10 nM.

With `COc1ccc(Nc2nc(=O)c(Cl)cn2Cc2ccc(F)c(Cl)c2)c(C)c1` [Compound I-0843], the IC50 fell in the range of 10 to 100 nM.

On to `O=c1nc(Nc2cccc3[nH]ccc23)n(Cc2ccc(F)c(F)c2)cc1F` [Compound I-1025], for which the IC50 was less than 10 nM.

Consider `CCOc1cc(Nc2nc(=O)c(OC)cn2Cc2ccc(F)c(F)c2)c(C)cc1C` [Compound I-0793], for which the IC50 was less than 10 nM.

In the case of `COCc1ccc(C)c(Nc2nc(=O)c(F)cn2Cc2cc(F)c(F)c(F)c2)c1` [Compound I-1086], the IC50 is less than 10 nM.

With `COc1cn(Cc2cc(F)cc(F)c2)c(Nc2cc(-c3cscn3)ccc2C)nc1=O` [Compound I-0753], the IC50 is less than 10 nM.

In the case of `COc1cn(Cc2ccc(F)cc2)c(Nc2cccc(OC(F)F)c2C)nc1=O` [Compound I-0660], the IC50 was in the range of 10 to 100 nM.

As to `COc1cn(Cc2cc(F)c(F)c(F)c2)c(Nc2cccc(SC)c2C)nc1=O` [Compound I-0704], the IC50 is less than 10 nM.

For the compound `C=C(C)c1ccc(C)c(Nc2nc(=O)c(OC)cn2Cc2ccc(F)c(F)c2)c1` [Compound I-0747], the IC50 fell in the range of 10 to 100 nM.

For `Cc1cc(C)c(Nc2nc(=O)c(F)cn2Cc2cc(F)c(F)c(F)c2)cc1F` [Compound I-1238], the IC50 was less than 10 nM.

For the compound `COc1cc(C)c(Nc2nc(=O)c(C)cn2Cc2cc(F)c(F)c(F)c2)cc1OC` [Compound I-1153], the IC50 was less than 10 nM.

With `COc1cn(Cc2ccccc2)c(Nc2c(C)cccc2C)nc1=O` [Compound I-0724], the IC50 was 100 to 500 nM.

As for `COc1ccc(Cl)c(Nc2nc(=O)c(F)cn2Cc2cc(F)c(F)c(F)c2)c1` [Compound I-1196], the IC50 is less than 10 nM.

Regarding `COc1cn(Cc2ccc(F)c(F)c2)c(Nc2cc(-c3ccnn3C)ccc2C)nc1=O` [Compound I-0783], the IC50 lay in the range of 10 to 100 nM.
